Legend:
[1] = system: Haemonchus contortus und Trychostrongylus colubriformis; experiment: B-5 test on sheep infected with nematodes, worm egg count in faeces; format: in vivo, Schafe; conditions: single dose
Procedure: B-5. Versuch an mit Nematoden (Haemonchus concortus und Trichostrongylus colubriformis) infizierten Schafen
Der Wirkstoff wird als Suspension formuliert mit einer Magensonde oder durch Injektion in den Pansen eines Schafes gegeben, das mit Haemonchus contortus und Trychostrongylus colubriformis künstlich infiziert worden ist. Pro Dosis werden 1 bis 3 Tiere verwendet. Jedes Schaf wird nur einmal mit einer einzigen Dosis behandelt, und zwar wahlweise mit 2 mg oder 1 mg/kg Körpergewicht. Die Evaluierung erfolgt durch Vergleich der Anzahl der vor und nach Behandlung im Kot der Schafe ausgeschiedenen Wurmeier.
Gleichzeitig und gleichartig infizierte aber unbehandelte Schafe dienen als Kontrolle. Schafe, die mit einer der Verbindungen der Formel I bei 1 mg/kg behandelt wurden, zeigten im Vergleich zu unbehandelten, aber infizierten Vergleichsgruppen keinen Nematodenbefall (= komplette Reduktion der Wurmeier im Kot). […] Schafe, die mit 0,1 mg/kg Köpergewicht der Verbindung Nr. 1.1 (A) und der Verbindung Nr. 1.15 (B) behandelt wurden, zeigten im Vergleich zur Kontrolle eine 77%ige (A) und eine 97Xige (B) Wirkung, während 5-0-(2,3,4,6-Tetra-0-acetyl-1-0-glucanopyranosyl)-milbemycin A3 bei dieser Konzentration unwirksam war.

[2] = system: L1-Larven von Lucilia sericata; experiment: B-3 action against L1 larvae in larval culture medium; format: in vivo; conditions: 100 ppm, after 4 days
Procedure: B-3. Wirkung gegen L1-Larven von Lucilia sericata
1 ml einer wässrigen Suspension der zu prüfenden Aktivsubstanz wird so mit 3 ml eines speziellen Larvenzuchtmediums bei ca. 50°C vermischt, dass ein Homogenisat von wahlweise 250 ppm oder 125 ppm Wirkstoffgehalt entsteht. In jede Reagenzglas-Probe werden ca. 30 Lucilia-Larven (L1) eingesetzt. Nach 4 Tagen wird die Mortalitätsrate bestimmt. Die Verbindungen der Formel 1 erzielten mit 250 ppm, die Verbindungen Nr. 1.1, 1.3, 1.15, 1.22, 1.27, 1.35, 1.37, 1.38 und 1.43 bereits bei 100 ppm eine Wirkung von 100 %.

[3] = system: Boophilus microplus (Biarra-Stamm); experiment: B-4 acaricidal action, injection into engorged female ticks; format: in vivo; conditions: dose per tick at which 9 of 10 females lay non-hatching eggs after 30 days
Procedure: B-4. Akarizide Wirkung gegen Boophilus microplus (Biarra-Stamm
Auf einer PVC-Platte wird waagrecht ein Klebstreifen so befestigt, das darauf 10 mit Blut vollgesogene Zecken-Weibchen von Boophilus microplus (Biarra-Stamm) nebeneinander in einer Reihe mit dem Rücken aufgeklebt werden können. Jeder Zecke wird mit einer Injektionsnadel 1 µl einer Flüssigkeit injiziert, die eine 1:1-Mischung von Polyethylenglykol und Aceton darstellt und in der als bestimmte Wirkstoffmenge […] pro Zecke gelöst ist. Kontrolltiere erhalten eine wirkstofffreie Injektion. Nach der Behandlung werden die Tiere unter Normalbedingungen in einem Insektarium bei ca. 28°C und 80 % relativer Luftfeuchtigkeit gehalten, bis die Eiablage erfolgt und die Larven aus den Eiern der Kontrolltiere geschlüpft sind.
Die Aktivität einer geprüften Substanz wird mit der IR90 bestimmt, d.h. es wird jene Wirkstoffdosis ermittelt, bei der noch nach 30 Tagen 9 von 10 Zeckenweibchen (= 90 %) Eier ablegen, die nicht schlupffähig sind.

Substance	Wirkung im Vergleich zur Kontrolle ([1]; 0,1 mg/kg Körpergewicht)	Wirkung (Reduktion der Wurmeier im Kot) ([1]; 2 mg/kg)	Wirkung (Mortalitätsrate) [2]	IR90 [3]
5-0-(2,3,4,6-Tetra-0-acetyl-1-0-glucanopyranosyl)-milbemycin A3 [Tetraacetylglucopyranosyl-milbemycin A3]	unwirksam	annähernd wirkungslos	–	–
5-0-(1-0-Galactopyranosyl)-milbemycin D [1.38]	–	–	100%	0,5 µg

From EP0185623A1, “Milbemycin derivatives for combating insects and parasites” (CIBA-GEIGY AG, priority 1984, dated 1986)
